Entries after “also recorded” stand apart in the source; their conditions may differ.
Key:
[1] = target: T1, MalE-VirF binding to the pvirB DNA probe (Shigella flexneri, UniProt P0A2T1); experiment: Fluorescence polarization (FP) assay, inhibition of MalE-VirF binding to the pvirB DNA probe
T1 construct: pMALvirF was constructed by cloning the virF gene into the vector, pMAL-c2x; made in house; host or cells: Shigella flexneri BS103 (pBAD202-MALvirF); initial preparations in E. coli KS1000 (pMALvirF)
Description: The FP assays were conducted in duplicate in black, half-area, 96-well plates (Corning, Twerksbury, MA). First, 30 μL of 5’-Fluoroscein-pvirB DNA probe working standard was added to appropriate wells of the microplate. The pvirB DNA working standard was in TE/NaCl buffer (see above) supplemented with BSA (0.07 mg/mL) and salmon sperm DNA (0.7 mg/mL). Next, 30 μL of varying concentrations of MalE-VirF in amylose resin elution buffer (see above) was added to appropriate wells of the microplate. The final concentration of pvirB DNA was either 50 nM (for test wells) or none (for blank wells) and the final concentrations of MalE-VirF ranged from 45 μM to 0.12 μM (for test wells) or none (for control wells). For each concentration of MalE-VirF tested, a blank well was also set up that included all reagents except pvirB DNA. The microplate was then incubated for 20 minutes at 37°C and anisotropy was determined using a SpectraMax M5 plate reader (Molecular Devices, Sunnyvale, CA). Data was acquired using an excitation wavelength equal to 490 nm and an emission wavelength equal to 520 nm. To determine anisotropy the following equation was used: Anisotropy=F∥-G^*F⊥/F∥+2^*G^*F⊥^*1000 where: Fǁ = fluorescence intensity parallel to excitation source after blanking, F┴ = fluorescence intensity perpendicular to excitation source after blanking, and G = G-factor (correction for polarization bias of the detection system). After anisotropy was determined, data were plotted using GraphPad Prism (La Jolla, Ca) and fit to the following equation: […] where Y = specific binding, KD = dissociation constant, BMAX = maximum binding, X = MalE-VirF concentration, and b = y-intercept.
The FP protocol listed above was adapted to determine the IC50 of the small molecule hit compounds. Compounds (ranging from 200 μM to 3.1 μM) or DMSO for controls (1% final concentration) were added to the pvirB DNA probe working standard prior to addition to the microplates. For IC50 determination, the MalE-VirF and pvirB DNA probe concentrations were held constant at 20 μM and 50 nM, respectively. Positive controls were established to determine 100% VirF inhibition (no MalE-VirF present, 50 nM pvirB DNA probe) and negative controls were set up to determine no VirF inhibition (1% DMSO, 20 μM MalE-VirF, and 50 nM pvirB DNA probe). Once again blanks were set up to include all reagents, except pvirB DNA probe. All reactions were run in duplicate. Anisotropy was calculated as listed above and data were plotted using GraphPad Prism then fit to the following equation: Y=Bottom+(Top-Bottom)/(1+10^(X-logIC50)) where: Y = anisotropy, X = log of compound concentration (M), Top and Bottom = plateaus in anisotropy units, and LogIC50 = log of the concentration that inhibits 50% of VirF binding. In the presence of the compounds (no VirF), a small increase (~6%) in the DNA anisotropy was observed.
The FP protocol used for IC50 determination was adapted to test a library of small molecule inhibitors of VirF. All steps were identical to the above protocol except compounds were tested at only 100 μM final concentration and positive control samples included 100 μM of compound. Once again blanks were set up to include all reagents, except pvirB DNA probe, and all reactions were run in duplicate. Anisotropy was calculated as listed above, and %inhibition was calculated as follows: %inhibition=rneg-rtest/rneg^*100 where: rneg = average anisotropy for negative controls and rtest = average anisotropy in presence of compound. Note: All rneg and rtest values were normalized to positive control values.

[2] = target: T2, MalE-VirF binding to the 5'Cy5-pvirB DNA probe (Shigella flexneri, UniProt P0A2T1); experiment: Electrophoretic mobility shift assay (EMSA) of MalE-VirF binding to pvirB DNA probe; settings: compound 100 μM; MalE-VirF 1 μM; probe 0.25 μM
T2 construct: pMALvirF was constructed by cloning the virF gene into the vector, pMAL-c2x; made in house; host or cells: Shigella flexneri BS103 (pBAD202-MALvirF); initial preparations in E. coli KS1000 (pMALvirF)
Description: Reactions for the EMSAs were incubated in a 37°C water bath for 15 minutes. Reactions (15 μL total volume) were composed of 6 μL pvirB EMSA DNA probe (0.25 μM), 6 μL of either MalE-VirF (1.0 μM) or native gel loading buffer (Tris-HCl 0.3 M, 50% glycerol, 0.05% bromophenol blue, pH 7.0), 1 μL of salmon sperm DNA (0.7 mg/mL, Invitrogen), 0.5 μL BSA (0.07 mg/mL), and 1.5 μL of either DMSO or compound (100 μM). A 6% native polyacrylamide gel (29:1 acrylamide to bis-acrylamide ratio) was made with 0.25X TBE buffer (22 mM Tris Base, 22 mM boric acid, 0.5 mM EDTA, pH 9.5) for the EMSA. The gel was electrophoresed for 1 hour at 150 V in 0.25X TBE buffer at 4°C before samples were loaded. After the reaction solutions (12 μL) were loaded onto the gel, the gel was electrophoresed for an additional hour at 150 V and 4°C. The gel was then visualized using FluorChem M gel imager (Protein Simple, Santa Clara, CA) with a 607 nm excitation wavelength and a 710 nm emission filter.

T1 sequence (P0A2T1 whole entry, looked up): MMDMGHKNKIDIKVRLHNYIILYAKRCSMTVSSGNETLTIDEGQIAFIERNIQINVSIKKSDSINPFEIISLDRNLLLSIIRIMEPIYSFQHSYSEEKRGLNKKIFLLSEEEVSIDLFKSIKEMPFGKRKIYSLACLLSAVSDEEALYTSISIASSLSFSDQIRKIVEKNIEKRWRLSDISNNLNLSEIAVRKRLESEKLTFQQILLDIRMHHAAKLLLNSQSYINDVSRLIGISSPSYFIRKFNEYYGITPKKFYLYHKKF
T2 sequence (P0A2T1 whole entry, looked up): as above

**Q.** How did the IC50 [1] turn out when `CN(C)CCOc1nc(-c2ccccc2)nc2c1oc1ccccc12` [compound 19615] was run?
**A.** 46 ± 2.2 µM

**Q.** What about the Ki [1] of the same molecule?
**A.** 5.6 µM

**Q.** And the inhibition at 100 µM ([1]; read-out: % Inhibition at 100 μM)?
**A.** 63%

**Q.** And the “Effect on MalE-VirF binding to the pvirB DNA probe (EMSA)” value [2]?
**A.** appeared to inhibit MalE-VirF binding; also recorded: dramatically reduced binding

Source: article PMC4564171 (PLoS ONE, 2015)
